Counter-ions that a name gives are not always drawn.
Columns and labels:
[1] = test system: peripheral neuropathy caused by vincristine; assay: Treatment of peripheral neuropathy caused by vincristine (Example 1); assay type: in vivo, human; conditions: patient with endometrial carcinoma on vincristine 1.4 mg/m^2 weekly; 5 mg orally twice a day
Method: A patient with endometrial carcinoma is given an intravenous bolus injection of vincristine at a dose of 1.4 mg/m^2 weekly. The toxic effects of vincristine cause sensory loss in the fingers and toes, a loss of the ankle jerk reflex, weakness and postural hypotension. […] During this time, therapy with vincristine is continued and evaluations of both tumor response and toxic side effects are carried out by a physician on a weekly basis. After continued therapy, symptoms associated with peripheral neuropathy subside. At this point, the dosage of vincristine is increased to 1.8 mg/m^2 and the process is continued.

[2] = test system: retinal ganglion cells; conditions: rat optic nerve crush model; Buys et al. 1994; cited from earlier work
[3] = test system: axotomized rat facial motor neurons; conditions: Salo et al. 1992; cited from earlier work
[4] = test system: CNS neurons; conditions: toxins such as MPP+, kainic acid or DSP-4; cited from earlier work
[5] = test system: cultured spinal cord neuron; conditions: Iwasaki et al. 1994; cited from earlier work
[6] = test system: spinal motor neurons; conditions: rat; Iwasaki et al. 1994; cited from earlier work

SMILES | symptoms associated with peripheral neuropathy [1] | survival of retinal ganglion cells at risk of undergoing apoptosis [2] | rescue of axotomized facial motor neurons [3] | survival of CNS neurons after exposure to chemical toxins [4] | neurite outgrowth [5] | effect on axotomy-induced cell death in spinal motor neurons [6]
C#CCN(C)[C@H](C)Cc1ccccc1 [selegiline hydrochloride] | subside |  |  |  |  | 
C#CCN(C)C(C)Cc1ccccc1 (stereo not drawn) [selegiline, R-(−)-N-methyl-N-(prop-2-ynyl)-2-aminophenylpropane] |  | increase the survival | capable of rescuing | increase the survival | enhance neurite outgrowth | neuroprotective effect
